Legend:
[1] = test system: 293T cells stably expressing split RL reporters; assay: Cell Titer-Blue cell proliferation assay; type: cell-based; conditions: Homo sapiens, HEK-293T
Experimental: Inhibition of cell proliferation at 20 μM was determined by cell-titer blue assays and toxic compounds were eliminated. The IC50 values for inhibition of bioluminescence signals (BLI) in cells stably expressing Hsp90(α/β)/p23 split RL reporters and the inhibition of cell proliferation for the top 19 compounds are shown in Table 1, Example 15, and their structures are shown in FIGS. 1A-1D.
Baseline complemented RL activities were determined 90 mins after addition of 20 μl of ENDUREN® (10 μM final concentration) (Promega, Madison, Wis.) using the Analyst GT (Molecular Device, Sunnyvale, Calif.), with an acquisition time of 0.2 sec per well. Cells were incubated with compounds for 24 h prior to re-determination of complemented RL activities, and normalized to the mean RL activities of untreated cells in columns 1-2. Another small molecule chemical library with 30,176 compounds (SPECS, Wakefield, R.I.) was also used in screening modulators of Hsp90(α/β)/p23 inhibitors (at 8.3 μM, one drug per well for initial screening). For dose response/confirmation assay the compounds were tested in duplicate in an 8 point (0.156-20 μM) dose response assay for RL activities for both Hps90(α/β)/p23 interactions. The effect of each compound on cell proliferation at 20 μM was determined using Cell Titer-Blue assay in duplicate wells. […]

[2] = test system: Hsp90(α/β)/p23 interactions; assay: BLI of lead compounds in intact 293T cells with split RL reporters; type: cell-based, human
Experimental: Bioluminescence signals were quantified and normalized for cell number and that of carrier control treated cells (right). Results were expressed as mean±S.E.M.
To determine the effect of lead compounds on disruption of Hsp90(α/β)/p23 interactions in intact cells, 3.5×10^4 293T cells stably transfected with split RL reporters as described in Chan et al., (2008) Cancer Res. 68: 216-226, were plated in each well in the 96-well black wall plate (Costar, Corning, N.Y.) and allowed to attach for 24 h, prior to treatment with different concentrations of the lead compounds for 24 h. The 10 μg/ml of ENDUREN® (in […] of cell culture medium) was added to each well for 1.5 h and RL activities were determined. BLI signals were normalized to that of cell number for each well (determined by Alamar Blue assay (Invitrogen, Carlsbad, Calif.)), prior to normalization to carrier control-treated cells.

[3] = test system: endogenous Hsp90(α/β)/p23 interactions; assay: Co-immunoprecipitation of Hsp90(α/β)/p23; type: cell-based, human; conditions: 5 μM, 24 h, 293T cells
Experimental: FIG. 5B is a digital image of a western blot analysis illustrating the effects of compounds CP1, CP9 and CP18 on disruption of Hsp90α/p23 and Hsp90β/p23 as determined by co-immunoprecipitation using antibodies against p23 and probing with Hsp90α- and Hsp90β-specific antibodies. The blot was probed with antibodies against p23 to ensure similar immunoprecipitation efficiency. Cells treated with 2 μM of PU-H71 served as a positive control.
Cells treated with PU-H71 (2 μM) served as a positive control.
Cells treated with 2 μM of PU-H71 served as a positive control. Western blotting of Hsp70, phosphorylated and total Akt and co-immunoprecipitation of Hsp90(α/β)/p23 interactions was performed as described Inglese et al., (2006) Proc. Nat. Acad. Sci. U.S.A. 103: 11473-11478, incorporated herein by reference in its entirety. The expression of Raf-1 was determined using rabbit polyclonal antibodies against Raf-1 (0.5 μg/ml, Abcam).

[4] = test system: pAkt/total Akt and Raf-1; assay: Western blotting of client proteins in 293T-FG cells (CP9 analogues); type: cell-based, human; conditions: different concentrations
Experimental: Cells treated with PU-H71 and 17-AAG (2.5 μM) served as positive controls. α-Tubulin was used as the loading control.
To determine if the reduction in IC50 for Hsp90(α/β)/p23 interactions also led to improved efficacy of A17 as an Hsp90 inhibitor, 293T-FG cells were treated with different concentrations of CP9 and A17. PU-H71 and 17AAG were used as positive controls. The expression of pAkt/total Akt and Raf-1 was determined by western blotting. […] Since A17 has a lower logP value (partition coefficient) than CP9 (2.8 versus 4.1), it may be more hydrophilic, have less non-specific binding to serum proteins and thus better bioavailability in tumors.
CP9 (0.3-10 μM), 17-AAG (10 μM) and PU-H71 (5 μM) were used as positive controls in triplicate wells. The efficacy of the analogues in disruption of Hsp90(α/β)/p23 and cell proliferation were monitored by RL imaging (2 h post upon addition of ENDUREN® at 30 μM final concentration) followed by FL imaging (10 mins post addition of D-Luc at 0.225 mg/ml final concentration) using a cooled CCD camera (1 min and 10 sec for RL and FL imaging, respectively). RL signals were normalized to that of FL signals to account for the effect of the analogues on cell proliferation. […] The effect of the CP9 analogues on degradation of Hsp90 client proteins in 293T cells were also monitored by western blotting as described above.

[5] = logP value (partition coefficient); type: physicochemical

logP [5]: 4.1
Compound: Cc1cc(NC(=O)CSc2nc(-c3cccs3)cc(C(F)(F)F)n2)no1 [CP9, N-(5-methylisoxazol-3-yl)-2-(4-(thiophen-2-yl)-6-(trifluoromethyl)pyrimidin-2-ylthio)acetamide]
inhibition at 20 µM [1]: 29% | selectivity for Hsp90α/p23 BLI signals relative to Hsp90β/p23 interactions ([2]; 293T cells): more selective for inhibition of Hsp90α/p23 BLI signals | bioluminescence signals in 293T cells expressing Hsp90α/p23 and Hsp90β/p23 split RL reporters ([2]; 24 h, normalized for cell number and carrier control): dose-dependent decrease | disruption of endogenous Hsp90(α/β)/p23 interactions by co-immunoprecipitation [3]: disruption of endogenous Hsp90(α/β)/p23 interactions | degradation of pAkt/total Akt and Raf-1 [4]: dose-dependent decreases
